Measured values published in patent US20060134729A1, “Process for the universal detection of microorganisms and reaction environment permitting the implementation of the process” (HEMOSYSTEM, a corporation of France, priority 2002, published 2006).

Key:
[1] = test system: Escherichia coli, Serratia marcescens, Staphylococcus epidermidis; assay: Optimization of nisine/EDTA concentrations, entirety of bacteria tested; format: cell-based
Experimental: (§1) Prepare a solution of PicoGreen at 1/2000 (molecular probe) in PBS buffer (saline phosphate buffer, pH 7.4).
(§2) […] nisine (starting material at 2.5% weight/weight) in 50 ml distilled water or 10 μg/ml,
(§3) Nisine 0.05 μg/ml/EDTA 7.5 mM: 250 μl nisine 10 μg/ml +0.140 g disodic EDTA, QSP 50 mL distilled water,
(§4) Nisine 0.1 μg/ml/EDTA 7.5 mM: […] nisine 10 μg/ml +0.140 g disodic EDTA, QSP 50 mL distilled water,
(§5) Nisine 0.5 μg/ml/EDTA 7.5 mM: 2.5 ml nisine 10 μg/ml+0.140 g disodic EDTA, QSP 50 mL water.
(§6) • Escherichia coli (CIP 105901) • Staphylococcus epidermidis (CIP 68.21) • Serratia marcescens (CIP 103716)
(§7) Adjust the preparations to obtain a suspension with 10^3 bacteria/ml.
(§8) • 1.2 mL marking solution • +3 mL bacterial suspension • Incubation 15 minutes at 22° C. • +7 ml solution of nisine/EDTA at different concentrations • Filtration on char filter 0.4 μm porosity. III Analysis and Results
(§9) After filtration, the filter is analyzed by cytometry in solid phase and the results expressed as the number of bacteria detected in cytometry in solid phase.

[2] = test system: Staphylococcus epidermidis; details: EDTA 5 mM; PBS, distilled water, TSB, plasma
Experimental: (§10) Prepare a solution of PicoGreen at 1/2000 (molecular probe) in PBS buffer. EDTA 5 mM: 0.093 g disodic EDTA, QSP 50 mL distilled water. Suspension of bacteria prepared in PBS in distilled water in a TSB (tryptone soy broth) environment and in plasma. • Escherichia coli (CIP 105901) • Staphylococcus epidermidis (CIP 68.21) Adjust the preparations to obtain a suspension with 10^3 bacteria/ml. • 1.2 mL of marking solution • +3 mL of bacterial suspension in the various environments • Incubation 15 minutes at 22° C. • +7 mL of EDTA solution • Filtration on char filter 0.4 μm porosity. III Analysis and Results After filtration, the filter is analyzed by cytometry in solid phase and the results are expressed as the number of fluorescent bacteria.

Escherichia coli [3] = details: EDTA 5 mM; PBS, distilled water, TSB, plasma
Experimental: as §10

Escherichia coli [4] = assay: PicoGreen DNA marking with association nisine/EDTA, cytometry in solid phase; format: cell-based
Experimental: as §1
Nisine 10 μg/ml: 0.02 g nisine (starting material at 2.5% weight/weight) QSP 50 ml distilled water. • EDTA 20 mM: 0.372 g disodic EDTA, QSP 50 ml of distilled water, • Prepare a range of EDTA with 0.25; 2.5; 12.5 and 18.75 ml of EDTA 20 mM (concentration range 0.1; 1; 5 and 7.5 mM), • Add 50, 250, 500 μl or 1 ml nisine 10 μg/ml (concentration range […]; 0.05; 0.1 and […]), • QSP 50 ml of distilled water. Suspension of Bacteria Prepared in PBS • Escherichia coli (CIP 105901)
as §7
• 1.2 ml of marking solution • +3 ml bacterial suspension • Incubation 15 minutes at 22° C. • +7 ml of solution of nisine or nisine/EDTA • Filtration on char filter 0.4 μm porosity. III Analysis and Results
After filtration, the filter is analyzed by cytometry in solid phase and the results expressed as the number of bacteria detected in cytometry in solid phase and as a percentage of bacteria detected relative to the method of enzymatic detection.

[5] = test system: Staphylococcus epidermidis; assay: Marking with nisine/EDTA/N octyl glucopyranoside; format: cell-based; details: NOG 0.25% and 0.5% with nisine 0.2 μg/ml, EDTA 7.5 mM
Experimental: (§11) 100 μg/ml: […] (starting material at 2.5% weight/weight) QSP 50 ml distilled water. • EDTA 100 mM: […] disodic EDTA, QSP 50 ml distilled water, • N octyl glucopyranoside 5%: 2.5 g in 50 ml distilled water • 20, 10, 5 or 2.5 ml NOG at 5% • +3.75 ml EDTA 100 mM • +0.1 ml […] 100 μg/ml • QSP 50 ml distilled water • This solution is at pH 4.8.

Pseudomonas aeruginosa [6] = assay: Marking with nisine/EDTA/N octyl glucopyranoside; format: cell-based; details: NOG 0.25% and 0.5% with nisine 0.2 μg/ml, EDTA 7.5 mM
Experimental: as §11

[7] = test system: Escherichia coli, Staphylococcus epidermidis, Serratia marcescens, Pseudomonas aeruginosa; assay: Marking with association chlorohexidine/N-octyl glucopyranoside; format: cell-based; details: most elevated chlorohexidine concentration (0.001% vs 0.0005%) with NOG; PBS and platelet concentrate
From the text: The results of this experiment showing the marking of DA and the detection of marked bacteria in the presence of a composition of the reaction environment comprising chlorohexidine in association with NOG for increasing the permeabilizing power and the penetration of the marker are illustrated in FIGS. 10A and 10B.

[8] = test system: Escherichia coli, Pseudomonas aeruginosa and Serratia marcescens; assay: Marking in the presence of chlorohexidine alone, Gram- strains; format: cell-based; details: tested range 0.01%, 0.005%, 0.001%
Experimental: (§12) Test implementing chlorohexidine only as permeabilizing agent for favoring the penetration of the bacterial marking agent. […] The counting on a Petri dish at 48 hours takes place with the reference method. The results of this experiment with a composition of the reaction environment comprising chlorohexidine as cellular penetration reactant to improve the marking of Escherichia coli, Pseudomonas aeruginosa and Serratia marcescens (Gram (−) bacterial strains) and Staphylococcus epidermidis are illustrated in FIG. 8.

Pseudomonas aeruginosa [9] = assay: Marking in the presence of chlorohexidine alone in different environments; format: cell-based; details: bacteria in PBS, platelet concentrate, autologous plasma
Experimental: Test implementing chlorohexidine only as permeabilizing agent for favoring the penetration of the bacterial marking agent. […] The counting on a Petri dish at 48 hours takes place with the reference method.

[10] = test system: Staphylococcus epidermidis; assay: Marking in the presence of chlorohexidine alone, Gram+; format: cell-based; details: chlorohexidine 0.005%
Experimental: as §12

Escherichia coli [11] = assay: Optimization of nisine/EDTA concentrations, cytometry in solid phase; format: cell-based; details: EDTA fixed at 7.5 mM
Experimental: as §1, §2, §3, §4, §5, §6, §7, §8, §9

[12] = test system: Staphylococcus epidermidis; assay: PicoGreen DNA marking with nisine alone, cytometry in solid phase; format: cell-based; details: nisine solutions 2, 10, 50 μg/ml, bacteria in PBS
Experimental: The use of nisine solely as a permeabilizing agent for facilitating penetration of the marking agent.
Prepare a series of dilutions of nisine (starting material at 2.5% weight/weight) in distilled water: • 0.1 g nisine in 50 ml distilled water=solution 50 μg/ml, • 0.02 g of nisine in 50 ml distilled water=solution 10 μg/ml, • 0.004 g of nisine in 50 ml distilled water=solution 2 μg/ml. Suspension of Bacteria Prepared in PBS • Escherichia coli (CIP 105901) • Staphylococcus epidermidis (68.21)
Adjust the preparations in order to obtain a suspension with 10^4 bacteria/ml.

Which results are given for `O=C([O-])CN(CCN(CC(=O)[O-])CC(=O)O)CC(=O)O.[Na+].[Na+]` [EDTA, disodic EDTA]?
EDTA concentration giving better detection of the entirety of bacteria tested ([1]; associated with nisine 0.2 μg/ml): 7.5 mM; marking of Gram+ bacteria with EDTA by itself [2]: does not permit a correct marking; marking of Gram- bacteria with EDTA by itself (Escherichia coli [3]): does not permit a correct marking; EDTA concentration at which percentage of marked Escherichia coli is maximal (Escherichia coli [4]; with nisine 0.1 μg/ml): 7.5 mM

What does the source list for `CCCCCCCCO[C@@H]1O[C@H](CO)[C@@H](O)[C@H](O)[C@H]1O` [N octyl glucopyranoside, N-octyl β D-glucopyranoside]?
effect of addition on the marking of Staphylococcus epidermidis [5]: positive effects; effect of addition on the marking of Pseudomonas aeruginosa (Pseudomonas aeruginosa [6]): positive effects

Which results are given for `CC(=O)O.CC(=O)O.NC(=N\CCCCCC/N=C(N)/N=C(\N)Nc1ccc(Cl)cc1)/N=C(\N)Nc1ccc(Cl)cc1` [chlorohexidine, Diacetate chlorohexidine]?
marking of the bacteria [7]: best marking; optimal concentration for the detection of Gram- bacteria [8]: 0.005%; effect of plasma on cellular penetration of the marker with chlorohexidine (Pseudomonas aeruginosa [9]): presence of plasma antagonizes the effect; effect on Gram+ bacteria [10]: toxic

For nisine, which “nisine concentration at which percentage of marked Escherichia coli is maximal” value (Escherichia coli [11]) is on record?
Its value is 0.1 µg/mL.

What about the “nisine concentration giving better detection of the entirety of bacteria tested” value ([1]; associated with EDTA 7.5 mM) of the same compound?
The value was 0.2 µg/mL.

And the “nisine concentration at which percentage of marked Escherichia coli is maximal” value (Escherichia coli [4]; with EDTA 7.5 mM)?
Its value is 0.1 µg/mL.

And the “preferable nisine concentration for marking” value [12]?
The value was “low concentrations are preferable”.

What about the “marking of the Gram+ on addition of nisine” value ([12]; PicoGreen) of the same compound?
Its value is “good marking”.
